From the supplement of paper PMC10307832

What was measured:
Assay in all cases: relative viability (nuclei count vs DMSO), 5 days (fraction); higher = more cells survive
ChaGo-K-1 = test system: ChaGo-K-1
How it was run: (§1)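 Lung cancer cell lines in 1536-well plates were dosed by pin tool the day after seeding, either with one drug alone or with a fixed anchor-drug dose plus five library-drug doses (not always all listed) in √10 steps. After 5 days, cells were fixed and their nuclei stained in one step (final 0.05% Triton X-100, 1% formaldehyde, 1 ug/ml Hoechst), then counted on 4× images. Relative viability is the nuclei count in treated wells divided by that in vehicle wells. Values are medians of duplicate plates.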

NCI-H596 = test system: NCI-H596
How it was run: as §1

ABC-1 = test system: ABC-1
How it was run: as §1

NCI-H1734 = test system: NCI-H1734
How it was run: as §1

NCI-H1755 = test system: NCI-H1755
How it was run: as §1

NCI-H2009 = test system: NCI-H2009
How it was run: as §1

CAL-12T = test system: CAL-12T
How it was run: as §1

NCI-H2126 = test system: NCI-H2126
How it was run: as §1

NCI-H322M = test system: NCI-H322M
How it was run: as §1

NCI-H647 = test system: NCI-H647
How it was run: as §1

LXF-289 = test system: LXF-289
How it was run: as §1

SW 900 = test system: SW 900
How it was run: as §1

LK-2 = test system: LK-2
How it was run: as §1

PC-14 = test system: PC-14
How it was run: as §1

NCI-H2087 = test system: NCI-H2087
How it was run: as §1

NCI-H522 = test system: NCI-H522
How it was run: as §1

EMC-BAC-2 = test system: EMC-BAC-2
How it was run: as §1

NCI-H2170 = test system: NCI-H2170
How it was run: as §1

NCI-H3122 = test system: NCI-H3122
How it was run: as §1

H3255 = test system: H3255
How it was run: as §1

NCI-H441 = test system: NCI-H441
How it was run: as §1

NCI-H1651 = test system: NCI-H1651
How it was run: as §1

HOP-62 = test system: HOP-62
How it was run: as §1

201T = test system: 201T
How it was run: as §1

NCI-H1563 = test system: NCI-H1563
How it was run: as §1

CCCCCCCCCCCC1=C(O)C(=O)C=C(O)C1=O [Embelin] + CCNC(=O)c1noc(-c2cc(C(C)C)c(O)cc2O)c1-c1ccc(CN2CCOCC2)cc1 [Luminespib] (partner 0.01 µM) gave a relative viability (ChaGo-K-1; first compound 0.08 µM) of 0.529, a relative viability (ChaGo-K-1; first compound 0.8 µM) of 0.755 and a relative viability (ChaGo-K-1; first compound 2.53 µM) of 0.776. The relative viability (ChaGo-K-1; first compound 8 µM) was 0.587, the relative viability (NCI-H596; first compound 0.08 µM) was 1.05 and the relative viability (NCI-H596; first compound 0.8 µM) was 0.795. For the same compound, the relative viability (NCI-H596; first compound 2.53 µM) was 1.43, the relative viability (NCI-H596; first compound 8 µM) was 0.904 and the relative viability (ABC-1; first compound 0.08 µM) was 0.546. For the same compound, the relative viability (ABC-1; first compound 0.8 µM) was 0.841, the relative viability (ABC-1; first compound 2.53 µM) was 0.913 and the relative viability (ABC-1; first compound 8 µM) was 0.825. For the same compound, the relative viability (NCI-H1734; first compound 0.08 µM) was 0.201, the relative viability (NCI-H1734; first compound 0.8 µM) was 0.208 and the relative viability (NCI-H1734; first compound 2.53 µM) was 0.208. It also gave a relative viability (NCI-H1734; first compound 8 µM) of 0.197, a relative viability (NCI-H1755; first compound 0.08 µM) of 0.257 and a relative viability (NCI-H1755; first compound 0.8 µM) of 0.603. It also gave a relative viability (NCI-H1755; first compound 2.53 µM) of 0.637, a relative viability (NCI-H1755; first compound 8 µM) of 0.421 and a relative viability (NCI-H2009; first compound 0.08 µM) of 1.05. It also gave a relative viability (NCI-H2009; first compound 0.8 µM) of 1.07, a relative viability (NCI-H2009; first compound 2.53 µM) of 1.08 and a relative viability (NCI-H2009; first compound 8 µM) of 1.01. The relative viability (CAL-12T; first compound 0.08 µM) was 0.499, the relative viability (CAL-12T; first compound 0.8 µM) was 0.69 and the relative viability (CAL-12T; first compound 2.53 µM) was 0.626. For the same compound, the relative viability (CAL-12T; first compound 8 µM) was 0.189, the relative viability (NCI-H2126; first compound 0.08 µM) was 0.838 and the relative viability (NCI-H2126; first compound 0.8 µM) was 1.01. It also gave a relative viability (NCI-H2126; first compound 2.53 µM) of 0.965, a relative viability (NCI-H2126; first compound 8 µM) of 0.927 and a relative viability (NCI-H322M; first compound 0.08 µM) of 0.951. It also gave a relative viability (NCI-H322M; first compound 0.8 µM) of 1.04, a relative viability (NCI-H322M; first compound 2.53 µM) of 1.19 and a relative viability (NCI-H322M; first compound 8 µM) of 0.83. For the same compound, the relative viability (NCI-H647; first compound 0.08 µM) was 0.233, the relative viability (NCI-H647; first compound 0.8 µM) was 0.326 and the relative viability (NCI-H647; first compound 2.53 µM) was 0.138. For the same compound, the relative viability (NCI-H647; first compound 8 µM) was 0.132, the relative viability (LXF-289; first compound 0.08 µM) was 0.548 and the relative viability (LXF-289; first compound 0.8 µM) was 0.619. The relative viability (LXF-289; first compound 2.53 µM) was 0.781, the relative viability (LXF-289; first compound 8 µM) was 0.751 and the relative viability (SW 900; first compound 0.08 µM) was 0.196. The relative viability (SW 900; first compound 0.8 µM) was 0.138, the relative viability (SW 900; first compound 2.53 µM) was 0.188 and the relative viability (SW 900; first compound 8 µM) was 0.18. For the same compound, the relative viability (LK-2; first compound 0.08 µM) was 0.17, the relative viability (LK-2; first compound 0.8 µM) was 0.281 and the relative viability (LK-2; first compound 2.53 µM) was 0.189. It also gave a relative viability (LK-2; first compound 8 µM) of 0.198, a relative viability (PC-14; first compound 0.08 µM) of 0.203 and a relative viability (PC-14; first compound 0.8 µM) of 0.235. The relative viability (PC-14; first compound 2.53 µM) was 0.211, the relative viability (PC-14; first compound 8 µM) was 0.167 and the relative viability (NCI-H2087; first compound 0.08 µM) was 0.162. It also gave a relative viability (NCI-H2087; first compound 0.8 µM) of 0.186, a relative viability (NCI-H2087; first compound 2.53 µM) of 0.141 and a relative viability (NCI-H2087; first compound 8 µM) of 0.172. It also gave a relative viability (NCI-H522; first compound 0.08 µM) of 1.26, a relative viability (NCI-H522; first compound 0.8 µM) of 1.2 and a relative viability (NCI-H522; first compound 2.53 µM) of 1.34. The relative viability (NCI-H522; first compound 8 µM) was 1.12, the relative viability (EMC-BAC-2; first compound 0.08 µM) was 1.14 and the relative viability (EMC-BAC-2; first compound 0.8 µM) was 1.38. The relative viability (EMC-BAC-2; first compound 2.53 µM) was 1.22, the relative viability (EMC-BAC-2; first compound 8 µM) was 1.29 and the relative viability (NCI-H2170; first compound 0.08 µM) was 0.701. It also gave a relative viability (NCI-H2170; first compound 0.8 µM) of 0.753, a relative viability (NCI-H2170; first compound 2.53 µM) of 0.397 and a relative viability (NCI-H2170; first compound 8 µM) of 0.589. It also gave a relative viability (NCI-H3122; first compound 0.08 µM) of 0.068, a relative viability (NCI-H3122; first compound 0.8 µM) of 0.0941 and a relative viability (NCI-H3122; first compound 2.53 µM) of 0.0799. The relative viability (NCI-H3122; first compound 8 µM) was 0.0894, the relative viability (H3255; first compound 0.08 µM) was 0.848 and the relative viability (H3255; first compound 0.8 µM) was 0.954. The relative viability (H3255; first compound 2.53 µM) was 0.935, the relative viability (H3255; first compound 8 µM) was 0.965 and the relative viability (NCI-H441; first compound 0.08 µM) was 0.32. It also gave a relative viability (NCI-H441; first compound 0.8 µM) of 0.294, a relative viability (NCI-H441; first compound 2.53 µM) of 0.332 and a relative viability (NCI-H441; first compound 8 µM) of 0.33. It also gave a relative viability (NCI-H1651; first compound 0.08 µM) of 0.953, a relative viability (NCI-H1651; first compound 0.8 µM) of 0.944 and a relative viability (NCI-H1651; first compound 2.53 µM) of 0.977. For the same compound, the relative viability (NCI-H1651; first compound 8 µM) was 0.886, the relative viability (HOP-62; first compound 0.08 µM) was 0.971 and the relative viability (HOP-62; first compound 0.8 µM) was 0.958. The relative viability (HOP-62; first compound 2.53 µM) was 1.07, the relative viability (HOP-62; first compound 8 µM) was 0.842 and the relative viability (201T; first compound 0.08 µM) was 0.987. For the same compound, the relative viability (201T; first compound 0.8 µM) was 1.08, the relative viability (201T; first compound 2.53 µM) was 1.06 and the relative viability (201T; first compound 8 µM) was 1.09. For the same compound, the relative viability (NCI-H1563; first compound 0.08 µM) was 0.568, the relative viability (NCI-H1563; first compound 0.8 µM) was 0.573 and the relative viability (NCI-H1563; first compound 2.53 µM) was 0.526. The relative viability (NCI-H1563; first compound 8 µM) was 0.487.
